The target in one test is BTK kinase (Homo sapiens (Human), UniProt Q06187). Briefly: In vitro assay for the inhibition of BTK kinase activity (Mobility-Shift Assay). It is filed as biochemical. An excerpt:
Mobility-Shift Assay, which is microfluidic chip technology, applies the basic concept of capillary electrophoresis to microfluidic environments. The substrate used for the experiment is a polypeptide with a fluorescent label. Under the action of enzyme in the reaction system, the substrate is transformed into a product, and the charge the substrate carries also changes accordingly. The use of the charge difference between the substrate and the product involved in Mobility-Shift Assay achieves the separating of the two, and they are tested respectively. The test results are expressed by conversion rates.
(3) 100% DMSO was added to the positive control well and the negative control well, respectively;

A further test concerns DOHH2 cells. Briefly: Cell proliferation inhibition in vitro, DOHH2 cells by CTG assay. It is filed as cell-based. Particulars: read-out: Inhibitions of cell activities IC50 (nM) DOHH2. On the procedure: (§1) Test Example 2: Determination of the Inhibition of Cell Proliferation Inhibitory Activity in
(§2) vitro of compounds using different cell lines
(§3) 2: Preparation of the Compounds:
(§4) The compounds to be tested were diluted with DMSO to prepare a mother liquor at a final concentration of 10 mM for later use.
3.2 Test of DOHH2 Cells by CTG Assay
(§5) Logarithmic growth phase cells were collected, counted and resuspended in complete medium. The cell concentration was adjusted to a suitable concentration (determined according to the cell density optimization test results), and seeded to 96-well plate and 100 μl of the cell suspension was added to each well. The cells were incubated in an incubator at 37° C., 100% relative humidity and 5% C02 for 24 hours.
The compounds to be tested were diluted with the medium to the set corresponding action concentration, and the cells were added at 10 µl/well. The cells were incubated in an incubator set at 37° C., 100% relative humidity and 5% C02 for 72 hours.
The medium was aspirated and discarded, and 30 μl of test reagent was added. The plate was gentle shaken away from the light to lyse the cells.
(§6) As: OA of the sample (cell+test reagent+test compound)
(§7) Ac: OA of the negative control (cell+test reagent+DMSO)
(§8) Ab: OA of the positive control (medium+test reagent+DMSO)
(§9) IC50 curve fitting was performed using the software Graphpad Prism 5 or XLfit and IC50 values were calculated.

For a further test, the system named is TMD8 cells. Briefly: Cell proliferation inhibition in vitro, TMD8 cells by CCK-8 method. It is filed as cell-based. Particulars: 72 hours, read-out: Inhibitions of cell activities IC50 (nM) TMD8. On the procedure: as §1, §2, §3, §4
(§10) 3.1. Test of TMD8 and OCI-ly10 Cells by CCK-8 Method
as §5
(§11) The compounds to be tested were diluted with the medium to the set corresponding action concentration, and the cells were added at 25 µl/well. The cells were incubated in an incubator at 37° C., 100% relative humidity and 5% C02 for 72 hours.
(§12) The medium was aspirated and discarded, and a complete medium containing 10% of the test reagent was added and the obtained system was incubated in a 37° C. incubator for 1 hour-4 hours.
as §6, §7, §8, §9
In general terms: Formazan colour is commonly taken as a measure of viable cells.

A further test deals with OCI-LY10 cells. As to the kind of experiment: Cell proliferation inhibition in vitro, OCI-ly10 cells by CCK-8 method. The class given is cell-based. To be noted: 72 hours, read-out: Inhibitions of cell activities IC50 (nM) OCI-LY10. As to the method:
as §1, §2, §3, §4, §10, §5, §11, §12, §6, §7, §8, §9

pIC50: −log10 of the molar value. Where two headings read alike, the source gives them in different places.

BTK kinase, sequence (Q06187 whole entry): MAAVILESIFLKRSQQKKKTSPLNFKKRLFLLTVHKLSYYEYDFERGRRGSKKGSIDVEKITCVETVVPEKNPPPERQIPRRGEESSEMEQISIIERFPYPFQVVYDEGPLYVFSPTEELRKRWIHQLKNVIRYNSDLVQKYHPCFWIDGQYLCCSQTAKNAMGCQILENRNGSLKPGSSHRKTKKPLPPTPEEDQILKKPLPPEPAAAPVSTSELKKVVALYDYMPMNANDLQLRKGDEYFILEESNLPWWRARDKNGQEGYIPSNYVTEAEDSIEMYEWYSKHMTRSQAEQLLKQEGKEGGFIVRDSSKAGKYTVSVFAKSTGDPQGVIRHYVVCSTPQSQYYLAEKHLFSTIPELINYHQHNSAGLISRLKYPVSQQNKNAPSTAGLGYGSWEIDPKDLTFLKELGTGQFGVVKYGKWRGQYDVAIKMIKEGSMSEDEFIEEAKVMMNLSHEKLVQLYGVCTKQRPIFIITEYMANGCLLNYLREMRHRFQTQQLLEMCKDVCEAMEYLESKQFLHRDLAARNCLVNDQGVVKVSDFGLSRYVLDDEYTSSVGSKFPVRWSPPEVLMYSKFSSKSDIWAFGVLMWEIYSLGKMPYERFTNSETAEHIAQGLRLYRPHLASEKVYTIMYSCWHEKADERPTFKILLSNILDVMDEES

On to `CC#CC(=O)N1CC2CCCC2C1c1nc(-c2ccc(C(=O)Nc3ccccn3)cc2)c2c(N)nccn12` (centres unmarked) [Example 4], for which the pIC50 at BTK kinase is 8.35. The 50% inhibitory concentration (IC50) in the test on DOHH2 cells (Homo sapiens, DOHH-2, 72 hours) was found to be 673 nM; in the test with TMD8 cells (Homo sapiens), 2.1 nM; with OCI-LY10 cells (Homo sapiens), 3.5 nM.
On the same counts, the results for `CC#CC(=O)N1CC2CCCC2C1c1nc(-c2ccc(C(=O)Nc3cc(C(F)(F)F)ccn3)cc2)c2c(N)nccn12` (centres unmarked) [Example 43] are 8.36, 217 nM, 2.3 nM and 0.42 nM.
As for `CC#CC(=O)N1[C@H]2CC[C@@H]1[C@@H](c1nc(-c3ccc(C(=O)Nc4ccccn4)cc3)c3c(N)nccn13)C2` [Example 119, 4-(8-amino-3-((1R,2S,4S)-7-(but-2-ynoyl)-7-azabicyclo[2.2.1]heptan-2-yl)imidazo[1,5-a]pyrazin-1-yl)-N-(pyridin-2-yl)benzamide], the pIC50 at BTK kinase is 7.37. Moreover, the IC50 in the test on DOHH2 cells (Homo sapiens, DOHH-2, 72 hours) is > 1000 nM; with TMD8 cells (Homo sapiens), 2.4 nM; in the test on OCI-LY10 cells (Homo sapiens), 0.42 nM.
For `C=CC(=O)N1CC2CCCC2C1c1nc(-c2ccc(C(C)(O)c3ccccc3)cc2)c2c(N)nccn12` (centres unmarked) [Example 77], the pIC50 on BTK kinase was 8.07. The concentration for half-maximal inhibition (IC50) came out at 212 nM with DOHH2 cells (Homo sapiens, DOHH-2, 72 hours); 2.5 nM with TMD8 cells (Homo sapiens); 0.26 nM with OCI-LY10 cells (Homo sapiens).
`CC#CC(=O)N1C2C[C@@H](C1c1nc(-c3ccc(C(=O)Nc4ccccn4)cc3)c3c(N)nccn13)N(C(C)C)C2` (some centres unmarked) [Example 17]: the pIC50 on BTK kinase was 7.32. Also, in the test with DOHH2 cells (Homo sapiens, DOHH-2, 72 hours), the concentration for half-maximal inhibition (IC50) is > 1000 nM.
On to `C=CC(=O)N1CC2CC1(c1nc(-c3ccc(C(=O)Nc4ccccn4)cc3)c3c(N)nccn13)CO2` (centres unmarked) [Example 9], for which the pIC50 at BTK kinase is 8.55. In addition, the IC50 was 74.3 nM in the test on DOHH2 cells (Homo sapiens, DOHH-2, 72 hours); 0.2 nM in the test with TMD8 cells (Homo sapiens); 0.13 nM with OCI-LY10 cells (Homo sapiens).
In the case of `C=CC(=O)N1C2C[C@@H](C1c1nc(-c3ccc(Oc4ccccc4)cc3)c3c(N)nccn13)N(C(C)C)C2` (some centres unmarked) [Example 109], the pIC50 on BTK kinase was 7.72. Moreover, the IC50 worked out at 184 nM in the test on DOHH2 cells (Homo sapiens, DOHH-2, 72 hours); 7.2 nM in the test with TMD8 cells (Homo sapiens); 0.31 nM in the test with OCI-LY10 cells (Homo sapiens).
On the same counts, the results for `CC#CC(=O)N1C[C@H]2[C@@H](C1c1nc(-c3ccc(C(=O)Nc4cc(C(F)(F)F)ccn4)cc3)c3c(N)nccn13)C2(C)C` (some centres unmarked) [Example 45] are 7.77, 285 nM, 6.4 nM and 1.1 nM.
On the same counts, the results for `CC#CC(=O)N1C2CC[C@@H](C2)C1c1nc(-c2ccc(C(C)(O)c3ccccc3)cc2)c2c(N)nccn12` (some centres unmarked) [Example 80] are 7.62, 618 nM, 4.3 nM and 0.67 nM.
For `C=CC(=O)N1C2C[C@@H](C1c1nc(-c3ccc(C(C)(O)c4ccccc4)cc3)c3c(N)nccn13)N(C(C)C)C2` (some centres unmarked) [Example 89] the same measures were 7.85, 96 nM, 2.4 nM and 0.23 nM.
As to `C=CC(=O)N1C2CC[C@@H](C2)C1c1nc(-c2ccc(C(=O)Nc3cc(C)ccn3)cc2)c2c(N)nccn12` (some centres unmarked) [Example 62], at BTK kinase, the pIC50 is 7.89. Further, the IC50 in the test with DOHH2 cells (Homo sapiens, DOHH-2, 72 hours) was 179 nM; in the test with TMD8 cells (Homo sapiens) it was 2.8 nM; in the test on OCI-LY10 cells (Homo sapiens), 3.9 nM.
Turning to `C=CC(=O)N1CC2CCCC2C1c1nc(-c2ccc(C(=O)Nc3cc(Cl)ccn3)cc2)c2c(N)nccn12` (centres unmarked) [Example 68], the pIC50 on BTK kinase was 8.28. Further, the IC50 turned out to be 172 nM with DOHH2 cells (Homo sapiens, DOHH-2, 72 hours); 3.2 nM with TMD8 cells (Homo sapiens); 4.4 nM in the test on OCI-LY10 cells (Homo sapiens).
For `C=CC(=O)N1C2C[C@@H](C1c1nc(-c3ccc(C(=O)Nc4ccccn4)cc3)c3c(N)nccn13)N(C)C2` (some centres unmarked) [Example 15] the same measures were 7.76, 716 nM, 64.5 nM and 17.6 nM.
For the molecule `C=CC(=O)N1C(c2nc(-c3ccc(C(=O)Nc4ccccn4)cc3)c3c(N)nccn23)[C@@H]2C[C@H]1CN2C(=O)OC(C)(C)C` (stereo partly drawn) [Example 126, (1 S,4S)-tert-butyl-5-acryloyl-6-(8-amino-1-(4-(pyridin-2-carbamoyl)phenyl)imidazo[1,5-a]pyrazin-3-yl)-2,5-diazabicyclo[2.2.1]heptane-2-carboxylate], at BTK kinase, the pIC50 was 8.36. Moreover, the half-maximal inhibitory concentration (IC50) in the test on DOHH2 cells (72 hours) was 206 nM; in the test with TMD8 cells it was 1.6 nM; in the test with OCI-LY10 cells it was 0.8 nM.
With `CC#CC(=O)N1C2CCC1(c1nc(-c3ccc(C(C)(O)c4ccccc4)cc3)c3c(N)nccn13)COC2` (centres unmarked) [Example 85], the negative-log IC50 (pIC50) on BTK kinase is 8.03. In addition, the IC50 in the test with DOHH2 cells (Homo sapiens, DOHH-2, 72 hours) is 96 nM; with TMD8 cells (Homo sapiens), 18.2 nM; in the test with OCI-LY10 cells (Homo sapiens), 0.97 nM.
For the molecule `CC#CC(=O)N1[C@@H]2CC[C@@H](C2)[C@H]1c1nc(-c2ccc(C(=O)Nc3ccccn3)cc2)c2c(N)nccn12` [Example 23, 4-(8-amino-3-((1R,3S,4S)-2-(but-2-ynoyl)-2-azabicyclo[2.2.1]heptan-3-yl)imidazo [1,5-a]pyrazin-1-yl)-N-(pyridin-2-yl)benzamide], at BTK kinase, the pIC50 is 7.31. Further, the IC50 is > 1000 nM in the test with DOHH2 cells (Homo sapiens, DOHH-2, 72 hours); 1.1 nM with TMD8 cells (Homo sapiens); 2.4 nM in the test with OCI-LY10 cells (Homo sapiens).
On to `C=CC(=O)N1C2CC[C@@H](C2)C1c1nc(-c2ccc(C(=O)Nc3cc(Cl)ccn3)cc2)c2c(N)nccn12` (some centres unmarked) [Example 70], for which the pIC50 at BTK kinase is 8.62. Further, the IC50 in the test with DOHH2 cells (Homo sapiens, DOHH-2, 72 hours) was 677 nM; in the test on TMD8 cells (Homo sapiens), 6.8 nM; in the test with OCI-LY10 cells (Homo sapiens) it was 3.2 nM.
Turning to `C=CC(=O)N1CC2(CC2)C[C@H]1c1nc(-c2ccc(C(C)(O)c3ccccc3)cc2)c2c(N)nccn12` (stereo partly drawn) [Example 74, 1-((6S)-6-(8-amino-1-(4-(1-hydroxy-1-phenylethyl)phenyl)imidazo[1,5-a]pyrazin-3-yl)-5-azaspiro[2.4]heptan-5-yl)prop-2-en-1-one], the pIC50 on BTK kinase was 7.62. Further, the IC50 with DOHH2 cells (Homo sapiens, DOHH-2, 72 hours) was 72 nM; with TMD8 cells (Homo sapiens), 9.7 nM; with OCI-LY10 cells (Homo sapiens), 3.5 nM.
For `C=CC(=O)N1C2C[C@@H](C1c1nc(-c3ccc(C(=O)Nc4cc(C(F)(F)F)ccn4)cc3)c3c(N)nccn13)N(C)C2` (some centres unmarked) [Example 54] the same measures were 8.82, 143 nM, 0.15 nM and 0.64 nM.
On the same counts, the results for `CC#CC(=O)N1C2C[C@@H](C1c1nc(-c3ccc(Oc4ccccc4)cc3)c3c(N)nccn13)N(C(C)C)C2` (some centres unmarked) [Example 111] are 7.52, 672 nM, 4.3 nM and 2.1 nM.
As to `C=CC(=O)N1C2CN[C@@H](C2)C1c1nc(-c2ccc(C(C)(O)c3ccccc3)cc2)c2c(N)nccn12` (some centres unmarked) [Example 86], the pIC50 at BTK kinase was 7.54. In addition, in the test with DOHH2 cells (Homo sapiens, DOHH-2, 72 hours), the half-inhibitory concentration (IC50) was found to be 917 nM.
For `C=CC(=O)N1CC2(CC2)C[C@H]1c1nc(-c2ccc(C(=O)Nc3ccccn3)cc2)c2c(N)nccn12` [Example 2, (S)-4-(3-(5-acryloyl-5-azaspiro[2.4]heptan-6-yl)-8-aminoimidazo[1,5-a]pyrazin-1-yl)-N-(pyridin-2-yl)benzamide] the same measures were 7.62 and 917 nM.
On the same counts, the results for `C=CC(=O)N1C2CN[C@@H](C2)C1c1nc(-c2ccc(C(=O)Nc3cc(C)ccn3)cc2)c2c(N)nccn12` (some centres unmarked) [Example 66] are 7.47 and > 1000 nM.
For `CC#CC(=O)N1CC2(CC2)C[C@H]1c1nc(-c2ccc(C(=O)Nc3ccccn3)cc2)c2c(N)nccn12` [Example 1, (S)-4-(8-amino-3-(5-(but-2-ynoyl)-5-azaspiro[2.4]heptan-6-yl)imidazo[1,5-a]pyrazin-1-yl)-N-(pyridin-2-yl)benzamide] the same measures were 7.08 and > 1000 nM.
Take `CC#CC(=O)N1C2CN[C@@H](C2)C1c1nc(-c2ccc(C(C)(O)c3ccccc3)cc2)c2c(N)nccn12` (some centres unmarked) [Example 87]: the pIC50 on BTK kinase is 7.38. In addition, the IC50 in the test with DOHH2 cells (Homo sapiens, DOHH-2, 72 hours) is 786 nM.
On the same counts, the results for `CC#CC(=O)N1C2CN[C@@H](C2)C1c1nc(-c2ccc(C(=O)Nc3cc(C)ccn3)cc2)c2c(N)nccn12` (some centres unmarked) [Example 67] are 7.16 and > 1000 nM.
For `C=CC(=O)N1CCC2CC21c1nc(-c2ccc(C(=O)Nc3ccccn3)cc2)c2c(N)nccn12` (centres unmarked) [Example 32] the same measures were 7.24 and > 1000 nM.

Broadly, the pIC50 is the IC50 on a negative log10 scale, so that one unit is a factor of ten. For orientation: IC50 means the point on the concentration scale where inhibition reaches its midpoint.

The values above are taken from patent US10793576B2, “Compound used as Bruton's tyrosine kinase inhibitor and preparation method and application thereof” (Chengdu Brilliant Pharmaceutical Co., LTD., priority 2017, dated 2020).
